Paper PMC8152971, “Valeriana rigida Ruiz & Pav. Root Extract: A New Source of Caffeoylquinic Acids with Antioxidant and Aldose Reductase Inhibitory Activities” (Foods, 2021)
Marks after values point to notes of the source that are not given here.

Key:
[1] = target: T1, rat lens AR homogenate (aldose reductase) (Rattus norvegicus, UniProt P07943); assay: AR inhibition assay; type: biochemical, Sprague–Dawley rats
T1 construct: the lenses were removed from the eyes, ground in a mortar; from tissue; host or cells: lens of Sprague–Dawley rats
Procedure: The eyes of 10-week Sprague–Dawley rats (250–280 g) were removed and frozen at −70 °C before use. Thereafter, the lenses were removed from the eyes, ground in a mortar (precooled at −70 °C), and extracted using 0.1 M PBS of pH 6.2 (around 0.5 mL of buffer per two frozen rat lenses).
The AR inhibitory activities of the extract and the separated compounds were determined as described previously. […] Next, the reaction was initiated by adding 20 µL of the substrate (DL-glyceraldehyde dimmer, 25 mM in 0.1 M PBS of pH 7.0), and the values were further measured for 6 min at 340 nm (OD340) using an Epoch microplate spectrophotometer (BioTek Instruments, Winooski, VT, USA). […] The DMSO used for sample preparation was less than 0.4% (v/v) in the reaction system.

[2] = Oxygen radical absorbance capacity (ORAC) assay; conditions: Trolox equivalent antioxidant capacity, mean ± SD, n ≥ 3
Procedure: The oxygen radical absorbance capacity (ORAC) assay was performed as previously described. Briefly, 0. […] Next, 60 µL of AAPH (40 mM) was added to generate peroxyl radicals to initiate the reaction.

[3] = DPPH radical scavenging assay; conditions: Trolox equivalent antioxidant capacity, mean ± SD, n ≥ 3
Procedure: The experiment was carried out as previously described. […] Thereafter, the absorbance was measured using a microplate reader (EL800, Bio-Tek Instruments, Winooski, VT, USA) at 570 nm.

[4] = Partition coefficient (K upper/lower) in biphasic CCC solvent systems; type: physicochemical
Procedure: The solvent system was screened via HPLC and evaluated according to the partition coefficient (K value) of the target compounds on the principle introduced by Ito [32]. Briefly, four solvent systems comprising EtOAc, n-BuOH, […] solution to 29 mM, and then the corresponding K values of the target compounds under acidic (Kacid) or basic (Kbase) conditions were determined, as previously described: each acidified or basified solvent system was partitioned to upper layer and lower layer. Thereafter, the extract (about 1–2 mg) was prepared in a 1.5 mL tube and dissolved by adding equal volumes (each 500 µL) of the upper layer and lower layers, which were mixed by a vortex mixer and centrifuged for about 20 s using a C1301 Mini Centrifuge (Labnet International, South Korea). Next, the upper and lower phase sample solutions were respectively pipetted (each 200 µL) into a new 1.5 mL-tube and evaporated by nitrogen gas. Each sample residue was redissolved using 200 µL of MeOH and subjected to HPLC analysis with an injection volume of 20 µL. The K value was calculated as K = Aupper/Alower, where Aupper and Alower are the HPLC peak areas of the target component in the upper and lower phases, respectively.

[5] = ABTS radical scavenging assay; conditions: Trolox equivalent antioxidant capacity, mean ± SD, n ≥ 3
Procedure: The experiment was conducted as previously described. In brief, 3.5 mM of potassium persulfate aqueous solution was used to prepare 0.2 mM of ABTS diammonium salt. The solution was diluted 10-fold using distilled water and allowed to produce ABTS radicals (ABTS^+) by keeping the solution in the dark for 14 h at room temperature. […] Equation (1) was used to calculate the ABTS^+ scavenging activity (%), where Acontrol is the absorbance of ABTS^+ solution free of samples, Asample is the absorbance of ABTS^+ solution incubated with a sample, Ablank1 is the absorbance of the test sample free of ABTS^+ solution, and Ablank2 is the absorbance of the diluted potassium persulfate solution.

[6] = Hypochlorous acid (HOCl) scavenging assay
Procedure: The HOCl scavenging assay was adapted from a previous study using 1,8-diaminonaphthalene as a fluorescence probe for hypochlorite. […] Next, the fluorescence intensity (λex = 360 ± 20 nm, λem = 460 ± 20 nm) was immediately measured using a microplate fluorescence reader (FLx800; Bio-Tek, Winooski, VT, USA). Trolox (final concentration 25–100 µg/mL) was used as a reference antioxidant.

O=C(/C=C/c1ccc(O)c(O)c1)O[C@@H]1[C@H](O)C[C@@](O)(C(=O)O)C[C@H]1OC(=O)/C=C/c1ccc(O)c(O)c1 [4,5-diCQA (6), 4,5-di-O-caffeoylquinic acid]
inhibition at 0.098 µM ([1]; 0.098 µM, read-out: AR inhibitory Activity Inhibition (%)): 23.7 ± 2.7%
inhibition at 0.195 µM ([1]; 0.195 µM, read-out: AR inhibitory Activity Inhibition (%)): 44.4 ± 4.45%
inhibition at 0.391 µM ([1]; 0.391 µM, read-out: AR inhibitory Activity Inhibition (%)): 65.9 ± 2.21%
IC50 ([1]; rat lens AR, read-out: AR inhibitory Activity IC50): 0.23 µM
TE, ORAC [2]: 3.70 ± 0.34 ^a µmol Trolox Equivalents Per µmol Compound
TE, DPPH [3]: 1.23 ± 0.07 ^a µmol Trolox Equivalents Per µmol Compound
K(upper/lower) Value ([4]; EtOAc/H2O, 1:1, 30 mM ammonia): 0.01
K(upper/lower) Value ([4]; EtOAc/H2O, 1:1, 208 mM formic acid): 12.24
K(upper/lower) Value ([4]; EtOAc/n-BuOH/H2O, 2:3:5, 30 mM ammonia): 0.13
K(upper/lower) Value ([4]; EtOAc/n-BuOH/H2O, 2:3:5, 208 mM formic acid): 45.95
K(upper/lower) Value ([4]; EtOAc/n-BuOH/H2O, 3:2:5, 30 mM ammonia): 0.05
K(upper/lower) Value ([4]; EtOAc/n-BuOH/H2O, 3:2:5, 208 mM formic acid): 41.13
K(upper/lower) Value ([4]; EtOAc/n-BuOH/H2O, 4:1:5, 30 mM ammonia): 0.01
K(upper/lower) Value ([4]; EtOAc/n-BuOH/H2O, 4:1:5, 208 mM formic acid): 22.17
TE, ABTS [5]: 1.22 ± 0.03 ^b µmol Trolox Equivalents Per µmol Compound
HOCl Scavenging Activity Inhibition (%) ([6]; 3.125 µM): 48.80 ± 5.62%
HOCl Scavenging Activity Inhibition (%) ([6]; 6.25 µM): 51.23 ± 2.14%
HOCl Scavenging Activity Inhibition (%) ([6]; 12.5 µM): 65.80 ± 4.06%
IC50 ([6]; linear regression): 4.61 µM
